Results as given in article PMC5006990 (PLoS ONE, 2016).
≈ marks a conversion by molar mass, not a printed value.

Columns and labels:
[1] = system: Mtb 365; experiment: microbe, parasite or virus in culture; format: cell-based, Mycobacterium tuberculosis; conditions: Mycobacterium tuberculosis, 365, read-out: MIC (µg/ml) Mtb 365
[2] = system: Mtb 276; experiment: microbe, parasite or virus in culture; format: cell-based, Mycobacterium tuberculosis; conditions: Mycobacterium tuberculosis, 276, read-out: MIC (µg/ml) Mtb 276
[3] = system: Mtb 352; experiment: microbe, parasite or virus in culture; format: cell-based, Mycobacterium tuberculosis; conditions: Mycobacterium tuberculosis, 352, read-out: MIC (µg/ml) Mtb 352
[4] = system: Mtb 56; experiment: microbe, parasite or virus in culture; format: cell-based, Mycobacterium tuberculosis; conditions: Mycobacterium tuberculosis, 56, read-out: MIC (µg/ml) Mtb 56
[5] = system: M. tuberculosis ATCC 35801 (strain Erdman); experiment: Microtiter broth dilution MIC, Mtb Erdman; conditions: resistance pattern, S3 Table
[6] = system: Mtb 5; experiment: microbe, parasite or virus in culture; format: cell-based, Mycobacterium tuberculosis; conditions: Mycobacterium tuberculosis, 5, read-out: MIC (µg/ml) Mtb 5
[7] = system: MDR and XDR strains of M. tuberculosis; experiment: microbe, parasite or virus in culture; format: cell-based; conditions: Mycobacterium tuberculosis, read-out: MIC values across the resistant strains

Row | SMILES | MIC [1] [µg/mL] | MIC [2] [µg/mL] | MIC [3] [µg/mL] | MIC [4] [µg/mL] | MIC (µg/ml) Mtb Erdmann [5] [µg/mL] | MIC [6] [µg/mL] | MIC [7] [mg/L]
1 | CC[C@@H](CO)NCCN[C@@H](CC)CO [Ethambutol, reference compound] | 32 (≈ 157 µM) | 4 (≈ 19.6 µM) | 1 (≈ 4.89 µM) | 32 (≈ 157 µM) | 1 (≈ 4.89 µM) |  | 
2 | NNC(=O)c1ccncc1 [INH, Isoniazid, reference compound] | 4 (≈ 29.2 µM) | 0.25 (≈ 1.82 µM) | 1 (≈ 7.29 µM) | 2 (≈ 14.6 µM) | 0.06 (≈ 0.438 µM) | 2 (≈ 14.6 µM) | 0.25 to 4 (≈ 1.82 to 29.2 µM)
3 | COc1c(N2C[C@@H]3CCCN[C@@H]3C2)c(F)cc2c(=O)c(C(=O)O)cn(C3CC3)c12 [Moxifloxacin, reference compound] | 0.06 (≈ 0.149 µM) |  |  |  | 0.06 (≈ 0.149 µM) | 1 (≈ 2.49 µM) | 
4 | CO[C@H]1/C=C/O[C@@]2(C)Oc3c(C)c(O)c4c(O)c(c(/C=N/N5CCN(C)CC5)c(O)c4c3C2=O)NC(=O)/C(C)=C\C=C\[C@H](C)[C@H](O)[C@@H](C)[C@@H](O)[C@@H](C)[C@H](OC(C)=O)[C@@H]1C [RIF, rifampin, reference compound] | 64 (≈ 77.8 µM) | 0.015 (≈ 0.0182 µM) | 0.001 (≈ 0.00122 µM) | 32 (≈ 38.9 µM) | 0.004 (≈ 0.00486 µM) | 8 (≈ 9.72 µM) | 
5 | [H]/N=C(/N)N[C@H]1[C@H](O)[C@@H](O)[C@H](O[C@@H]2O[C@@H](C)[C@](O)(C=O)[C@H]2O[C@@H]2O[C@@H](CO)[C@H](O)[C@@H](O)[C@@H]2NC)[C@@H](N/C(N)=N\[H])[C@@H]1O [Streptomycin, reference compound] | 32 (≈ 55 µM) | 0.25 (≈ 0.43 µM) | 0.25 (≈ 0.43 µM) | 32 (≈ 55 µM) |  |  | 
